The text below walks through data of patent US10966970B2, “Fused tricyclic compounds and uses thereof in medicine” (SUNSHINE LAKE PHARMA CO., LTD., priority 2017, dated 2021).

Molecules are shown by their SMILES. pIC50: −log10 of the molar value.

In assay [1] the test system is HBsAg secretion. Put plainly: Inhibition of HBsAg secretion (ELISA). In kind it is cell-based, HBV. Conditions: Hepatitis B virus, HepG2.2.15, 240 h, read-out: HbsAg IC50 (nM). On the procedure: (§1) The chromosomes of HepG2.2.15 cells (SELLS, PNAS, 1987 and SELLS, JV, 1988) integrate the complete HBV genome and stably express viral RNA and viral proteins. HepG2.2.15 cells are able to secrete mature HBV particles and HBsAg into the culture medium. Viral particle DNA and HBsAg secreted by HepG 2.2.15 cells can be quantified by qPCR and ELISA methods, and the effects of the compound on virus replication and HBsAg secretion are thus examined.
HepG 2.2.15 Cells (8,000 per well) were seeded into 96-well cell culture plates in duplicate and cultured for 3 days until the cells grew to fill in pores. Cells were treated with 4-fold serial diluted compound solution for 10 days, and the compound solution was exchanged once every other day, the final concentration of DMSO in all wells was 0.5% and DMSO was used as a drug-free control. On the eleventh day, the supernatant was collected for quantitative detection of HBsAg.
The level of HBsAg secreted by the cells after treatment with the compound was detected by ELISA. The method used a hepatitis B surface antigen diagnostic kit (Shanghai K ehua Biotechnology Co., Ltd. 510910113). 25 ≈L of the supernatant to be examined (diluted to 75 ≈L in PBS) was added to each well of the ELISA plate, and a kit-positive control and a negative control were set. The ELISA plates were blocked with mounting paper and incubated at 37 eC for 60 minutes. The ELISA plate was took out, and the mounting paper was removed, then 50 ≈L of enzyme conjugate was added into each well. After shaking for 10 seconds, the ELISA plates were blocked with mounting paper and incubated at 37 eC for 30 minutes. The ELISA plate was took out, and the mounting paper was removed, and the ELISA plate was repeated washing five times: liquid in the wells was discard each time; the wells was filled with washing solution, then stood for 60 seconds and spined dry; and liquid residue on blotting paper was patted dry. After the washing was completed, to all wells was immediately added a mixture of freshly prepared developer A and developer B: 100 ≈L per well. After shaking for 10 seconds on oscillator, the ELISA plates were blocked with mounting paper and incubated at 37 eC for 30 minutes. To all wells were added 50 ≈L of stop solution. Data were read at a wavelength of 450 nm on an Envision plate reader. Concentration-HBsAg OD450 value was treated with Graphpad Prism 5 software and the IC50 of inhibition of HBsAg secretion by compounds was calculated by a four-parameter nonlinear regression model.
In general terms: In an ELISA, binding on a coated surface is turned into a signal by an enzyme label.

The test system of assay [2] is HBV DNA replication. Description: Inhibition of HBV virus replication (HBV DNA in supernatant, qPCR). The assay is classed as cell-based. Conditions: Hepatitis B virus, 240 h; HepG2.2.15 cells, 10 days treatment, supernatant HBV DNA by qPCR. The protocol:
as §1
HepG 2.2.15 Cells (8,000 per well) were seeded into 96-well cell culture plates in duplicate and cultured for 3 days until the cells grew to fill in pores. Cells were treated with 4-fold serial diluted compound solution for 10 days, and the compound solution was exchanged once every other day, the final concentration of DMSO in all wells was 0.5% and DMSO was used as a drug-free control. On the eleventh day, the supernatant was collected for quantitative detection of HBV DNA.
qPCR method was used for detection of viral genomic DNA, HBV primers were as follows: HBV-For-202, […]; HBV-Rev-315, […].
Using the SY BR Premix Ex Taq II—Takara DRR081S kit, 1 ≈L of the cell culture supernatant was used as a template, a plasmid containing the HBV genome was used for plotting a standard curve, and virus copy number was calculated using the standard curve. Concentration-virus copy number was treated with Graphpad Prism 5 software and the IC50 of inhibition of virus replication by compounds was calculated by a four-parameter nonlinear regression model.
On the technique in general: In qPCR the cycle at which signal appears reflects the starting amount.

For `C#CCOC(=O)c1cc2c(cc1OCCCOC)CC(C(C)C)n1cc(C(=O)O)c(=O)cc1-2` (stereo not drawn) [Example 36, 6-isopropyl-9-(3-methoxypropoxy)-2-oxo-10-((prop-2-yn-1-yloxy)carbonyl)-6,7-dihydro-2H-pyrido[2,1-a]isoquinoline-3-carboxylic Acid], the IC50 (as a rule, the concentration that inhibits the measured activity by half) in assay [1] was 4.22 nM. The negative-log IC50 (pIC50) (as a rule, the IC50 on a negative log10 scale, so that one unit is a factor of ten) in assay [2] is 8.59.

On to `COCCCOc1cc2c(cc1-c1ccccn1)-c1cc(=O)c(C(=O)O)cn1C(C(C)C)C2` (stereo not drawn) [Example 67, 6-isopropyl-9-(3-methoxypropoxy)-2-oxo-10-(pyridin-2-yl)-6,7-dihydro-2H-pyrido[2,1-a]isoquinoline-3-carboxylic Acid], for which the IC50 in assay [1] was 7.77 nM. This compound had a negative logarithm of the IC50 (pIC50) in assay [2] of 8.36.

Turning to `CC(C)C1Cc2cc(OCCC3CC3)c(-c3nccs3)cc2-c2cc(=O)c(C(=O)O)cn21` (stereo not drawn) [Example 22, 9-(2-cyclopropylethoxy)-6-isopropyl-2-oxo-10-(thiazol-2-yl)-6,7-dihydro-2H-pyrido[2,1-a]isoquinoline-3-carboxylic Acid], the half-inhibitory concentration (IC50) in assay [1] was 0.65 nM. In addition, the pIC50 in assay [2] is 9.08.

Take `COc1cc2c(cc1-c1ncc(C(C)C)s1)CC(C(C)C)n1cc(C(=O)O)c(=O)cc1-2` (stereo not drawn) [Example 77, 6-isopropyl-9-(5-isopropylthiazol-2-yl)-10-methoxy-2-oxo-6,7-dihydro-2H-pyrido[2,1-a]isoquinoline-3-carboxylic Acid]: the half-inhibitory concentration (IC50) in assay [1] amounted to 2.87 nM. Further, the pIC50 in assay [2] was 8.55.

`COCCCOc1cc2c(cc1-c1cncs1)-c1cc(=O)c(C(=O)O)cn1C(C(C)C)C2` (stereo not drawn) [Example 33, 6-isopropyl-9-(3-methoxypropoxy)-2-oxo-10-(thiazol-5-yl)-6,7-dihydro-2H-pyrido[2,1-a]isoquinoline-3-carboxylic Acid]: in assay [1], the IC50 was determined as 3.08 nM. For the same compound, the pIC50 in assay [2] was 8.71.

As for `CC(C)C1Cc2cc(OCc3ccccc3)c(-c3nccs3)cc2-c2cc(=O)c(C(=O)O)cn21` (stereo not drawn) [Example 18, 9-(benzyloxy)-6-isopropyl-2-oxo-10-(thiazol-2-yl)-6,7-dihydro-2H-pyrido[2,1-a]isoquinoline-3-carboxylic Acid], in assay [1], the concentration for half-maximal inhibition (IC50) was found to be 5.53 nM. In assay [2], this compound gave a negative-log IC50 (pIC50) of 8.09.

Consider `CC(=O)c1cc2c(cc1N1CCCC1)CC(C(C)C)n1cc(C(=O)O)c(=O)cc1-2` (stereo not drawn) [Example 30, 10-acetyl-6-isopropyl-2-oxo-9-(pyrrolidin-1-yl)-6,7-dihydro-2H-pyrido[2,1-a]isoquinoline-3-carboxylic Acid], for which, in assay [1], the IC50 is 7.83 nM. The same compound had a pIC50 in assay [2] of 8.11.

Regarding `COC(=O)c1cc2c(cc1N1CCCC1)CC(C(C)C)n1cc(C(=O)O)c(=O)cc1-2` (stereo not drawn) [Example 34, 6-isopropyl-10-(methoxycarbonyl)-2-oxo-9-(pyrrolidin-1-yl)-6,7-dihydro-2H-pyrido[2,1-a]isoquinoline-3-carboxylic Acid], the IC50 in assay [1] worked out at 9.85 nM. Moreover, in assay [2], the negative-log IC50 (pIC50) was 8.32.

Turning to `COCCCOc1cc2c(cc1-c1csc(C)n1)-c1cc(=O)c(C(=O)O)cn1C(C(C)C)C2` (stereo not drawn) [Example 14, 6-isopropyl-9-(3-methoxypropoxy)-10-(2-methylthiazol-4-yl)-2-oxo-6,7-dihydro-2H-pyrido[2,1-a]isoquinoline-3-carboxylic Acid], in assay [1], the IC50 is 7.2 nM. Moreover, the negative logarithm of the IC50 (pIC50) in assay [2] was 8.47.

For `COC(=O)c1cc2c(cc1-c1ccc(Cl)s1)CC(C(C)C)n1cc(C(=O)O)c(=O)cc1-2` (stereo not drawn) [Example 73, 9-(5-chlorothiophen-2-yl)-6-isopropyl-10-(methoxycarbonyl)-2-oxo-6,7-dihydro-2H-pyrido[2,1-a]isoquinoline-3-carboxylic Acid], the IC50 in assay [1] stood at 12.7 nM. Moreover, the negative logarithm of the IC50 (pIC50) in assay [2] is 8.41.

`CCCCCOc1cc2c(cc1-c1nccs1)-c1cc(=O)c(C(=O)O)cn1C(C(C)C)C2` (stereo not drawn) [Example 20, 6-isopropyl-2-oxo-9-(pentyloxy)-10-(thiazol-2-yl)-6,7-dihydro-2H-pyrido[2,1-a]isoquinoline-3-carboxylic Acid]: the IC50 in assay [1] was found to be 8.12 nM. Also, in assay [2], the pIC50 is 8.06.

For `CC(=O)c1cc2c(cc1-c1ccco1)CC(C(C)C)n1cc(C(=O)O)c(=O)cc1-2` (stereo not drawn) [Example 31, 10-acetyl-9-(furan-2-yl)-6-isopropyl-2-oxo-6,7-dihydro-2H-pyrido[2,1-a]isoquinoline-3-carboxylic Acid], the 50% inhibitory concentration (IC50) in assay [1] was determined as 8.2 nM. The compound further showed a pIC50 in assay [2] of 8.20.

As for `COCCCOc1cc2c(cc1C(=O)OC)-c1cc(=O)c(C(=O)O)cn1C(C(C)C)C2` (stereo not drawn) [Example 1, 6-isopropyl-10-(methoxycarbonyl)-9-(3-methoxypropoxy)-2-oxo-6,7-dihydro-2H-pyrido[2,1-a]isoquinoline-3-carboxylic Acid], the IC50 in assay [1] is 2.25 nM. In assay [2], this compound had a negative-log IC50 (pIC50) of 8.20.

Take `COCc1csc(-c2cc3c(cc2OC)-c2cc(=O)c(C(=O)O)cn2C(C(C)C)C3)n1` (stereo not drawn) [Example 78, 6-isopropyl-10-methoxy-9-(4-(methoxymethyl)thiazol-2-yl)-2-oxo-6,7-dihydro-2H-pyrido[2,1-a]isoquinoline-3-carboxylic Acid]: the IC50 in assay [1] came to 3.26 nM. Besides, in assay [2], the pIC50 is 8.55.

On to `COCCCOc1cc2c(cc1-c1csc(N)n1)-c1cc(=O)c(C(=O)O)cn1C(C(C)C)C2` (stereo not drawn) [Example 8, 10-(2-aminothiazol-4-yl)-6-isopropyl-9-(3-methoxypropoxy)-2-oxo-6,7-dihydro-2H-pyrido[2,1-a]isoquinoline-3-carboxylic Acid], for which the IC50 in assay [1] is 6.28 nM. For the same compound, the negative-log IC50 (pIC50) in assay [2] was 8.35.

Take `COC(=O)c1cc2c(cc1-c1ccc(Cl)o1)CC(C(C)C)n1cc(C(=O)O)c(=O)cc1-2` (stereo not drawn) [Example 74, 9-(5-chlorofuran-2-yl)-6-isopropyl-10-(methoxycarbonyl)-2-oxo-6,7-dihydro-2H-pyrido[2,1-a]isoquinoline-3-carboxylic Acid]: the concentration for half-maximal inhibition (IC50) in assay [1] came to 3.68 nM. The negative logarithm of the IC50 (pIC50) in assay [2] was 8.53.

Turning to `COCCCOc1cc2c(cc1C(C)=O)-c1cc(=O)c(C(=O)O)cn1C(C(C)C)C2` (stereo not drawn) [Example 6, 10-acetyl-6-isopropyl-9-(3-methoxypropoxy)-2-oxo-6,7-dihydro-2H-pyrido[2,1-a]isoquinoline-3-carboxylic Acid], in assay [1], the IC50 was 3.63 nM. Besides, the pIC50 in assay [2] was 8.52.

On to `COCCCOc1cc2c(cc1-c1ncco1)-c1cc(=O)c(C(=O)O)cn1C(C(C)C)C2` (stereo not drawn) [Example 10, 6-isopropyl-9-(3-methoxypropoxy)-10-(oxazol-2-yl)-2-oxo-6,7-dihydro-2H-pyrido[2,1-a]isoquinoline-3-carboxylic Acid], for which the IC50 in assay [1] stood at 10.5 nM. The compound also showed a negative-log IC50 (pIC50) in assay [2] of 8.14.

With `COc1cc2c(cc1-c1nccs1)CC(C(C)C)n1cc(C(=O)O)c(=O)cc1-2` (stereo not drawn) [Example 75, 6-isopropyl-10-methoxy-2-oxo-9-(thiazol-2-yl)-6,7-dihydro-2H-pyrido[2,1-a]isoquinoline-3-carboxylic Acid], the IC50 in assay [1] came to 2.41 nM. Also, in assay [2], the pIC50 was 8.68.

With `COCCCOc1cc2c(cc1-c1nccs1)-c1cc(=O)c(C(=O)O)cn1C(C(C)C)C2` (stereo not drawn) [Example 9, 6-isopropyl-9-(3-methoxypropoxy)-2-oxo-10-(thiazol-2-yl)-6,7-dihydro-2H-pyrido[2,1-a]isoquinoline-3-carboxylic Acid], the 50% inhibitory concentration (IC50) in assay [1] was 0.25 nM. In addition, the pIC50 in assay [2] is 9.74.

As to `COCCCOc1cc2c(cc1C(=O)CCC(F)(F)F)-c1cc(=O)c(C(=O)O)cn1C(C(C)C)C2` (stereo not drawn) [Example 53, 6-isopropyl-9-(3-methoxypropoxy)-2-oxo-10-(4,4,4-trifluorobutanoyl)-6,7-dihydro-2H-pyrido[2,1-a]isoquinoline-3-carboxylic Acid], the pIC50 in assay [2] is 8.10.

As for `COC(=O)c1cc2c(cc1N1CC[C@H](OC(C)=O)C1)CC(C(C)C)n1cc(C(=O)O)c(=O)cc1-2` (stereo partly drawn) [Example 47, 9-((S)-3-acetoxypyrrolidin-1-yl)-6-isopropyl-10-(methoxycarbonyl)-2-oxo-6,7-dihydro-2H-pyrido[2,1-a]isoquinoline-3-carboxylic Acid], the negative logarithm of the IC50 (pIC50) in assay [2] was 8.20.
